Test results from patent US20260234136A1, “ISOXAZOLIDINES AS RIPK1 INHIBITORS AND USE THEREOF” (GENZYME CORPORATION, priority 2023, published 2026).
pIC50: −log10 of the molar value. ≈ marks a conversion by molar mass, not a printed value.

Assays:
[1] = test system: U937 cells; assay: Cellular assay in U937 cells to measure the activity of RIPK1-inhibitors on cell death (necroptosis); format: cell-based; conditions: Homo sapiens, U-937, 50 μM zVAD.fmk and 100 ng/ml recombinant human TNFα, overnight (18 to 24 hrs), MTS readout
[2] = physchem; conditions: 50 mM phosphate buffer, 25 °C, pH 7.4, aqueous buffer, thermodynamic from solid

Compound | pIC50 [1] | solubility at 16 h [2] [µM]
Cc1ccc([C@@H]2CCON2C(=O)[C@@H]2CCN(c3ncnc(-c4ccnn4C)n3)CC23CC3)cn1 [Example 69, [(8R)-5-[4-(2-methylpyrazol-3-yl)-1,3,5-triazin-2-yl]-5-azaspiro[2.5]octan-8-yl]-[(3S)-3-(6-methylpyridin-3-yl)-1,2-oxazolidin-2-yl]methanone] | 8.05 | 601 (≈ 277 µg/mL)
Cc1ccc([C@@H]2CCON2C(=O)C2CCN(c3ncc(F)c(-n4ccnc4C)n3)CC2)cn1 [Example 77, [1-[5-fluoro-4-(2-methylimidazol-1-yl)pyrimidin-2-yl]piperidin-4-yl]-[(3S)-3-(6-methylpyridin-3-yl)-1,2-oxazolidin-2-yl]methanone] | 9.00 | > 1110
Cc1ccc([C@@H]2CCON2C(=O)C2CCN(c3nccc(-c4ncco4)n3)CC2)cn1 [Example 37, [(3S)-3-(6-methylpyridin-3-yl)-1,2-oxazolidin-2-yl]-[1-[4-(1,3-oxazol-2-yl)pyrimidin-2-yl]piperidin-4-yl]methanone] | 7.39 | 34.7 (≈ 14.6 µg/mL)
CO[C@@H]1CCCN(c2ccnc(N3CCC(C(=O)N4OCC[C@H]4c4ccc(C)nc4)CC3)n2)C1=O [Example 93, (3R)-3-methoxy-1-[2-[4-[(3S)-3-(6-methylpyridin-3-yl)-1,2-oxazolidine-2-carbonyl]piperidin-1-yl]pyrimidin-4-yl]piperidin-2-one] | 6.36 | > 1040
Cc1ccc([C@@H]2CCON2C(=O)C2CCN(c3nccc(N4C(=O)CCC4(C)C)n3)CC2)cn1 [Example 88, 5,5-dimethyl-1-[2-[4-[(3S)-3-(6-methylpyridin-3-yl)-1,2-oxazolidine-2-carbonyl]piperidin-1-yl]pyrimidin-4-yl]pyrrolidin-2-one] | 5.87 | > 1080
Cc1ccc([C@@H]2CCON2C(=O)[C@@H]2CCN(c3nccc(N4CCCC4=O)n3)CC23CC3)cn1 [Example 44, 1-[2-[(8R)-8-[(3S)-3-(6-methylpyridin-3-yl)-1,2-oxazolidine-2-carbonyl]-5-azaspiro[2.5]octan-5-yl]pyrimidin-4-yl]pyrrolidin-2-one] | 7.60 | 380 (≈ 176 µg/mL)
Cc1ncc([C@@H]2CCON2C(=O)C2CCN(c3nccc(-n4ccnc4C)n3)CC2)cc1F [Example 20, [(3S)-3-(5-fluoro-6-methyl-3-pyridyl)isoxazolidin-2-yl]-[1-[4-(2-methylimidazol-1-yl)pyrimidin-2-yl]-4-piperidyl]methanone] | 9.00 | 21.4 (≈ 9.66 µg/mL)
Cc1ccc([C@@H]2CCON2C(=O)C2CCN(c3ncnc(-c4nccs4)n3)CC2)cn1 [Example 38, [(3S)-3-(6-methylpyridin-3-yl)-1,2-oxazolidin-2-yl]-[1-[4-(1,3-thiazol-2-yl)-1,3,5-triazin-2-yl]piperidin-4-yl]methanone] | 7.29 | 275 (≈ 120 µg/mL)
Cc1ccc([C@@H]2CCON2C(=O)C2CCN(c3cc(-c4ccnn4C)ncn3)CC23CC3)cn1 (mixture of isomers) [Example 34, [5-[6-(2-methylpyrazol-3-yl)pyrimidin-4-yl]-5-azaspiro[2.5]octan-8-yl]-[(3S)-3-(6-methylpyridin-3-yl)-1,2-oxazolidin-2-yl]methanone] | 7.28 | > 1090
O=C(C1CCN(c2nccc(N3CCCC4(CC4)C3=O)n2)CC1)N1OCC[C@H]1c1cnccn1 [Example 57, 5-[2-[4-[(3S)-3-pyrazin-2-yl-1,2-oxazolidine-2-carbonyl]piperidin-1-yl]pyrimidin-4-yl]-5-azaspiro[2.5]octan-4-one] | 7.23 | > 1080
Cc1ncc([C@@H]2CCON2C(=O)C2CCN(c3nccc(N4CCCC4=O)n3)CC2)cc1F [Example 56, 1-[2-[4-[(3S)-3-(5-fluoro-6-methylpyridin-3-yl)-1,2-oxazolidine-2-carbonyl]piperidin-1-yl]pyrimidin-4-yl]pyrrolidin-2-one] | 7.68 | > 1100
Cc1ncc([C@@H]2CCON2C(=O)[C@@H]2CCN(c3ncnc(-c4ccnn4C)n3)CC23CC3)cc1F [Example 48, [(3S)-3-(5-fluoro-6-methylpyridin-3-yl)-1,2-oxazolidin-2-yl]-[(8R)-5-[4-(2-methylpyrazol-3-yl)-1,3,5-triazin-2-yl]-5-azaspiro[2.5]octan-8-yl]methanone] | 8.52 | 231 (≈ 111 µg/mL)
CO[C@H]1CCCN(c2ccnc(N3CCC(C(=O)N4OCC[C@H]4c4ccc(C)nc4)CC3)n2)C1=O [Example 94, (3S)-3-methoxy-1-[2-[4-[(3S)-3-(6-methylpyridin-3-yl)-1,2-oxazolidine-2-carbonyl]piperidin-1-yl]pyrimidin-4-yl]piperidin-2-one] | 6.67 | > 1040
